Experimental data reported in US20250099514A1, “FISH REARING COMPOSITION, AND COMPOSITION FOR PREVENTING OR TREATING FISH DISEASES” (SUMITOMO CHEMICAL COMPANY, LIMITED, priority 2021, published 2025).
Non-standard residues stand in square brackets, D forms with d. Primed or numbered codes have the meaning given here. No end group written: not given here. Dhb′ = not defined here; Dha = C=C(N)C(=O)O

What was measured:
[1] = system: Lactococcus garvieae type II (TUMSAT-LgN1 strain); test: Antibacterial activity test: growth of Lactococcus garvieae type II after shaking culture with the test substance, colony formation on TH agar; type: cell-based; set-up: key: +: presence of antibacterial activity,; −: absence of antibacterial activity; details: 25° C., 8 hours
Description: (§1) Examination was performed on whether bacterial cell preparations of NITE BP-03198, NITE BP-03199, NITE BP-03200, NITE BP-03202, ATCC-11454, and NITE ABP-03481 inhibit the growth of Lactococcus garvieae type I (TUMSAT-K9408 strain) and type II (TUMSAT-LgN1 strain). With reference to FIG. 7, the experimental method will be described. To 270 μL of Todd-Hewitt (TH) medium 10, 30 μL of a lactic acid bacterial cell preparation 11 was added. Furthermore, 3 μL of a bacterial solution 12 containing Lactococcus garvieae (approximately 10^5 cfu/mL) was added, and shaking culture was performed at 25° C. for 8 hours. To TH agar medium 14, 5 μL of a bacterial culture solution 13 was dropped, culture was performed at 25° C. for 12 hours, and whether a colony 15 of Lactococcus garvieae formed was observed. If the number of colonies observed was five or less, it was determined that there was antibacterial activity. Lactic acid bacterial cell preparations were prepared in the following manner. For NITE BP-03198, NITE BP-03199, NITE BP-03200, and NITE BP-03202, first, the lactic acid bacteria were each cultured in MRS Broth at a temperature of 30° C., giving culture solutions. Thereafter, the culture solutions were centrifuged to precipitate bacterial cells, and the culture supernatants were collected. […]

[2] = system: Lactococcus garvieae type I (TUMSAT-K9408 strain); test: Antibacterial activity test: growth of Lactococcus garvieae type I after shaking culture with the test substance, colony formation on TH agar; type: cell-based; set-up: key: +: presence of antibacterial activity; −: absence of antibacterial activity; details: 25° C., 8 hours
Description: (§2) Examination was performed on whether bacterial cell preparations of NITE BP-03198, NITE BP-03199, NITE BP-03200, NITE BP-03202, ATCC-11454, and NITE ABP-03481 inhibit the growth of Lactococcus garvieae type I (TUMSAT-K9408 strain) and type II (TUMSAT-LgN1 strain). With reference to FIG. 7, the experimental method will be described. To 270 μL of Todd-Hewitt (TH) medium 10, 30 μL of a lactic acid bacterial cell preparation 11 was added. Furthermore, 3 μL of a bacterial solution 12 containing Lactococcus garvieae (approximately 10^5 cfu/mL) was added, and shaking culture was performed at 25° C. for 8 hours. To TH agar medium 14, 5 μL of a bacterial culture solution 13 was dropped, culture was performed at 25° C. for 12 hours, and whether a colony 15 of Lactococcus garvieae formed was observed. If the number of colonies observed was five or less, it was determined that there was antibacterial activity. Lactic acid bacterial cell preparations were prepared in the following manner. For NITE BP-03198, NITE BP-03199, NITE BP-03200, and NITE BP-03202, first, the lactic acid bacteria were each cultured in MRS Broth at a temperature of 30° C., giving culture solutions. Thereafter, the culture solutions were centrifuged to precipitate bacterial cells, and the culture supernatants were collected. The culture supernatants collected were 10-fold concentrated by using an ultrafiltration membrane (Merck Millipore, AMICON ULTRA-15 3 KDa cutoff), giving bacterial cell preparations. For ATCC-11454 and NITE ABP-03481, bacterial cell preparations were obtained in the same manner as described for NITE BP-03198 and others. As a negative control, medium for lactic acid bacteria (MRS Broth) was added to a bacterial solution containing Lactococcus garvieae.
(§3) Examination was performed on whether synthetic plantaricins inhibit the growth of Lactococcus garvieae type I (TUMSAT-K9408 strain) and type II (TUMSAT-LgN1 strain). The method in Experiment 8 is the same as that in Experiment 7 except that synthetic plantaricins were used in place of the lactic acid bacterial cell preparations. Each synthetic plantaricin was synthesized by using common techniques of organic synthesis. A solution containing plantaricin A (plantaricin A), a solution obtained by mixing plantaricin E and plantaricin F at a ratio (mole ratio) of 1:1 (plantaricin EF), a solution obtained by mixing plantaricin J and plantaricin K at a ratio (mole ratio) of 1:1 (plantaricin JK), or a solution obtained by mixing plantaricin NC8α and plantaricin NC8β at a ratio (mole ratio) of 1:1 (plantaricin NC8αβ) was added to a bacterial solution containing Lactococcus garvieae, and shaking culture was performed at 25° C. for 8 hours. The bacterial solutions containing Lactococcus garvieae after culture were each dropped on agar medium, and whether a colony of Lactococcus garvieae formed was observed.
Examination was performed on whether a purified product of nisin A inhibits the growth of Lactococcus garvieae type I (TUMSAT-K9408 strain) and type II (TUMSAT-LgN1 strain). The method in Experiment 9 is the same as those in Experiments 7 and 8 except that a purified product of nisin A was used in place of the lactic acid bacterial cell preparations or the synthetic plantaricins. A purified product of nisin A (manufactured by Sigma-Aldrich Co. LLC) was dissolved in water and removed of insoluble components by centrifugation, giving a nisin A solution. […]

[3] = system: Lactococcus garvieae type II (TUMSAT-LgN1 strain); test: Antibacterial activity test: growth of Lactococcus garvieae type II after shaking culture with the test substance, colony formation on TH agar; type: cell-based; details: Experiments 8 and 9, 1 to 10 μM
Description: as §1

[4] = system: Lactococcus garvieae type I (TUMSAT-K9408 strain); test: Antibacterial activity test: growth of Lactococcus garvieae type I after shaking culture with the test substance, colony formation on TH agar; type: cell-based; details: Experiments 8 and 9, 1 to 10 μM
Description: as §1

[5] = system: Lactococcus garvieae type II (TUMSAT-LgN1 strain); test: Antibacterial activity test: growth of Lactococcus garvieae type II after shaking culture with the test substance, colony formation on TH agar; type: cell-based; set-up: key: +: presence of antibacterial activity; −: absence of antibacterial activity; details: 25° C., 8 hours
Description: as §2
as §3, with “The bacterial solutions containing Lactococcus garvieae after culture were each dropped on agar medium, and whether a colony of Lactococcus garvieae formed was observed.” left out

[6] = system: Lactococcus garvieae type I (TUMSAT-K9408 strain); test: Antibacterial activity test: growth of Lactococcus garvieae type I after shaking culture with the test substance, colony formation on TH agar; type: cell-based; set-up: key: +: presence of antibacterial activity,; −: absence of antibacterial activity; details: synthetic plantaricin 10 μM; 25° C., 8 hours
Description: as §1

[7] = system: Lactococcus garvieae CLG4 strain; details: NPL 4; cited from earlier work
[8] = system: Lactococcus garvieae 03/8460 strain; details: NPL 3; cited from earlier work

## plantaricin A
[1]; synthetic plantaricin 3 μM
  Antibacterial activity, Lactococcus garvieae TUMSAT-LgN1: +
[1]; synthetic plantaricin 10 μM
  Antibacterial activity, Lactococcus garvieae TUMSAT-LgN1: +
[2]; synthetic plantaricin 1 μM
  Antibacterial activity, Lactococcus garvieae TUMSAT-K9408: −
[2]; synthetic plantaricin 3 μM
  Antibacterial activity, Lactococcus garvieae TUMSAT-K9408: −
[3]
  Inhibition of the growth of Lactococcus garvieae type II (in words): inhibited the growth
[4]
  Inhibition of the growth of Lactococcus garvieae type I (in words): inhibited the growth
[5]; synthetic plantaricin 1 μM
  Antibacterial activity, Lactococcus garvieae TUMSAT-LgN1: −
[6]
  Antibacterial activity, Lactococcus garvieae TUMSAT-K9408: +

## nisin A (I[Dhb′]SI[Dha]LCTPGCKTGALMGCNMKTATCHCSIHV[Dha]K; thioether (positions not given here); not fully specified (residues 3, 8, 13, 23, 25, bridges); also: lanthionine thioether rings and dehydro residues not placed; UniProt P13068 24-57, looked up) [purified product of nisin A (manufactured by Sigma-Aldrich Co. LLC) dissolved in water]
[2]; nisin A solution 1 μM
  Antibacterial activity, Lactococcus garvieae TUMSAT-K9408: +
[2]; nisin A solution 3 μM
  Antibacterial activity, Lactococcus garvieae TUMSAT-K9408: +
[2]; nisin A solution 10 μM
  Antibacterial activity, Lactococcus garvieae TUMSAT-K9408: +
[3]
  Inhibition of the growth of Lactococcus garvieae type II (in words): inhibited the growth
[4]
  Inhibition of the growth of Lactococcus garvieae type I (in words): inhibited the growth
[5]; nisin A solution 1 μM
  Antibacterial activity, Lactococcus garvieae TUMSAT-LgN1: +
[5]; nisin A solution 3 μM
  Antibacterial activity, Lactococcus garvieae TUMSAT-LgN1: +
[5]; nisin A solution 10 μM
  Antibacterial activity, Lactococcus garvieae TUMSAT-LgN1: +

## nisin Z (I[Dhb′]SI[Dha]LCTPGCKTGALMGCNMKTATCNCSIHV[Dha]K; thioether (positions not given here); not fully specified (residues 3, 8, 13, 23, 25, bridges); also: lanthionine thioether rings and dehydro residues not placed; UniProt P29559 24-57, looked up) [antibacterial peptide produced by Lactococcus lactis strains TW34 and WA2-67 (literature)]
[7]
  Growth of the Lactococcus garvieae CLG4 strain: inhibited the growth
[8]
  Growth of the Lactococcus garvieae 03/8460 strain: inhibited the growth
